From ChEMBL document CHEMBL5137083 (J Med Chem, 2022) come the findings set out here.

Common to all, as to set-up: species or system Cell membrane
Assay [1] deals with T1, Melatonin receptor type 1B (Homo sapiens, UniProt P49286).
T1 sequence (P49286 whole entry): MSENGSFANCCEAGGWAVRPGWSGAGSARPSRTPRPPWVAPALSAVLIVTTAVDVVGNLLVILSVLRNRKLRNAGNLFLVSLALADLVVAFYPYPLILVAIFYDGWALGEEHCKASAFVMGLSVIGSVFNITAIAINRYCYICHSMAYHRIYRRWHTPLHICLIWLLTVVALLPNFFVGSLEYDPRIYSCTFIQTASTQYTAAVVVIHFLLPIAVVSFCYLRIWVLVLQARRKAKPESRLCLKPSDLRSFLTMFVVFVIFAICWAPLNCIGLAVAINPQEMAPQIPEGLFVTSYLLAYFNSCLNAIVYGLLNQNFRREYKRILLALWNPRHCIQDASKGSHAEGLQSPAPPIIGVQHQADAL
Briefly: Displacement of 2-[125I]iodomelatonin from human melatonin MT2 receptor stably expressing in human HEK293 cell membranes under dark condition by radioligand based competition binding assay.

The target of assay [2] is T2, Melatonin receptor type 1A (Homo sapiens, UniProt P48039). Put plainly: Displacement of 2-[125I]iodomelatonin from human melatonin MT1 receptor stably expressing in human HEK293 cell membranes in presence of light-activated compounds by radioligand based competition binding assay.
T2 sequence (P48039 whole entry): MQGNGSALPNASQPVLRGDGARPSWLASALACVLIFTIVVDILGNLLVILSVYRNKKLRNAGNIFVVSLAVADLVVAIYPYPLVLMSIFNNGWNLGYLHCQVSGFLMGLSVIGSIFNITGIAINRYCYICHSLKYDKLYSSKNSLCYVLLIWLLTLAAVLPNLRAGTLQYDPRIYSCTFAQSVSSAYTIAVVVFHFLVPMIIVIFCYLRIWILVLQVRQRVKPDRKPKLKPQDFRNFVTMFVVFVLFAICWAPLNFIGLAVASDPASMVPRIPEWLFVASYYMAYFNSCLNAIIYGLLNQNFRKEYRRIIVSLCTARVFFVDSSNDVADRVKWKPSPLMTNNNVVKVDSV
Assay [3] addresses T2, Melatonin receptor type 1A. Briefly: Displacement of 2-[125I]iodomelatonin from human melatonin MT1 receptor stably expressing in human HEK293 cell membranes under dark condition by radioligand based competition binding assay.
Assay [4] has as its target T1, Melatonin receptor type 1B. Briefly: Displacement of 2-[125I]iodomelatonin from human melatonin MT2 receptor stably expressing in human HEK293 cell membranes in presence of light-activated compounds by radioligand based competition binding assay.

For `COc1ccc2c(c1)c(CCNC(C)=O)cn2C(=O)OCc1cc(OC)c(OC)cc1[N+](=O)[O-]`, the Ki (commonly the dissociation constant of the complex between target and ligand, obtained from inhibition or displacement) in assay [1] is 39.8 nM; in assay [2], 7.76 nM; in assay [3] it was 51.3 nM; in assay [4] it was 6.92 nM.
